Results published in paper PMC10707982, “Solubility and Thermodynamics Data of Cabozantinib Malate in Various Aqueous Solutions of Dimethyl Sulfoxide at Different Temperatures” (Molecules, 2023).

Experiments:
[1] = parameters: method as in doi:10.1016/j.molliq.2020.115146; settings: cited from earlier work
[2] = Apparent thermodynamic analysis of CBZM dissolution (van't Hoff and Gibbs equations) and enthalpy–entropy compensation; format: physicochemical
Method: All of the CBZM’s apparent thermodynamic properties were determined at Thm. The reported equation was used to determine the Thm. Then, 308 K was calculated as the Thm for CBZM. Several thermodynamic parameters were obtained via an apparent thermodynamic analysis. These parameters were computed using the van’t Hoff and Gibbs equations. Using Equation (12) and Thm = 308 K, the ΔsolH^0 data for CBZM in cosolvent mixtures and pure solvents were calculated:(12) ∂ln xe/∂1/T−1/ThmP=−ΔsolH^0/R
The ΔsolH^0 for CBZM was obtained by the plotted van’t Hoff curves between ln xe of CBZM and 1/T−1/Thm .
Furthermore, at Thm = 308 K, the ΔsolG^0 for CBZM in cosolvent combinations and pure solvents was derived utilizing the Krug et al. approach by Equation (13):(13) ΔsolG^0=−RThm×intercept where the intercept values for CBZM in cosolvent combinations and pure solvents were calculated using the van’t Hoff plots depicted in Figure 5.
By Equation (14), the ΔsolS^0 for CBZM in cosolvent mixtures and neat solvents was derived:(14) ΔsolS^0=ΔsolH^0−ΔsolG^0/Thm
An enthalpy–entropy compensation analyses was performed, as previously described, to assess the solvation behavior of CBZM in cosolvent mixtures and neat solvents. Weighted curves of ΔsolH° vs. ΔsolG° were constructed at Thm = 308 K for this experiment.

[3] = Shake flask solubility of CBZM in DMSO aqueous solutions and pure solvents; format: physicochemical; settings: for Experimental mole fraction solubility (xe): 101.1 kPa
Method: A digital analytical balance (Mettler Toledo, Greifensee, Switzerland) with a sensitivity of 0.10 mg was used to measure the mass of each cosolvent mixture. A series of DMSO aqueous solutions (m = 0.10–0.90), were investigated. Three replications of each cosolvent mixture were taken. CBZM’s solubility values in numerous DMSO aqueous solutions (m = 0.0–1.0) and pure solvents were determined utilizing a shake flask methodology at five distinct temperature and fixed atmospheric pressure. Essentially, extra CBZM crystals were mixed with known amounts of each cosolvent mixture and neat solvents in triplicates. All the mixtures were vortexed for about 5 min. To achieve equilibrium, the resulting mixes were transferred to a WiseBath WSB Shaking Water Bath (Model WSB-18/30/-45, Daihan Scientific Co. Ltd., Seoul, Republic of Korea) for 72 h at 100 rpm for continuous shaking. After the samples reached equilibrium, they were removed from the shaker and centrifuged at 5000 rpm for 30 min at 298.2 K. The uncertainty in water bath temperature was recorded as 0.15 K. The equilibrium time of 72 h was optimized by preliminary experiments. Under preliminary experiments, CBZM solubility was measured at 24, 48, […], 72, and 96 h. […] After the supernatants were separated and diluted with mobile phase (if needed), the CBZM content was evaluated at 244 nm using a previously described HPLC technique. By using their standard formulae found in the literature, CBZM xe values were obtained.

[4] = DMSO mass fraction m = 0.0, Thm = 308 K
[5] = DMSO mass fraction m = 0.1, Thm = 308 K
[6] = DMSO mass fraction m = 0.2, Thm = 308 K
[7] = DMSO mass fraction m = 0.3, Thm = 308 K
[8] = DMSO mass fraction m = 0.4, Thm = 308 K
[9] = DMSO mass fraction m = 0.5, Thm = 308 K
[10] = DMSO mass fraction m = 0.6, Thm = 308 K
[11] = DMSO mass fraction m = 0.7, Thm = 308 K
[12] = DMSO mass fraction m = 0.8, Thm = 308 K
[13] = DMSO mass fraction m = 0.9, Thm = 308 K
[14] = DMSO mass fraction m = 1.0, Thm = 308 K

SMILES: COc1cc2nccc(Oc3ccc(NC(=O)C4(C(=O)Nc5ccc(F)cc5)CC4)cc3)c2cc1OC [CBZM, Cabozantinib malate]
- Total HSP (δt) [1]: 25.50 MPa^1/2
- Apparent standard Gibbs energy ΔsolG^0 [2, 4]: 8.929 kcal/mol
- Apparent standard enthalpy ΔsolH^0 [2, 4]: 12.6 kcal/mol
- Apparent standard entropy ΔsolS^0 [2, 4]: 49.82 J mol^−1 K^−1
- Apparent standard Gibbs energy ΔsolG^0 [2, 5]: 8.224 kcal/mol
- Apparent standard enthalpy ΔsolH^0 [2, 5]: 11.48 kcal/mol
- Apparent standard entropy ΔsolS^0 [2, 5]: 44.21 J mol^−1 K^−1
- Apparent standard Gibbs energy ΔsolG^0 [2, 6]: 7.533 kcal/mol
- Apparent standard enthalpy ΔsolH^0 [2, 6]: 10.47 kcal/mol
- Apparent standard entropy ΔsolS^0 [2, 6]: 39.92 J mol^−1 K^−1
- Apparent standard Gibbs energy ΔsolG^0 [2, 7]: 6.84 kcal/mol
- Apparent standard enthalpy ΔsolH^0 [2, 7]: 9.696 kcal/mol
- Apparent standard entropy ΔsolS^0 [2, 7]: 38.80 J mol^−1 K^−1
- Apparent standard Gibbs energy ΔsolG^0 [2, 8]: 6.152 kcal/mol
- Apparent standard enthalpy ΔsolH^0 [2, 8]: 8.559 kcal/mol
- Apparent standard entropy ΔsolS^0 [2, 8]: 32.71 J mol^−1 K^−1
- Apparent standard Gibbs energy ΔsolG^0 [2, 9]: 5.452 kcal/mol
- Apparent standard enthalpy ΔsolH^0 [2, 9]: 7.835 kcal/mol
- Apparent standard entropy ΔsolS^0 [2, 9]: 32.35 J mol^−1 K^−1
- Apparent standard Gibbs energy ΔsolG^0 [2, 10]: 4.768 kcal/mol
- Apparent standard enthalpy ΔsolH^0 [2, 10]: 6.697 kcal/mol
- Apparent standard entropy ΔsolS^0 [2, 10]: 26.18 J mol^−1 K^−1
- Apparent standard Gibbs energy ΔsolG^0 [2, 11]: 4.07 kcal/mol
- Apparent standard enthalpy ΔsolH^0 [2, 11]: 5.779 kcal/mol
- Apparent standard entropy ΔsolS^0 [2, 11]: 23.21 J mol^−1 K^−1
- Apparent standard Gibbs energy ΔsolG^0 [2, 12]: 3.382 kcal/mol
- Apparent standard enthalpy ΔsolH^0 [2, 12]: 4.656 kcal/mol
- Apparent standard entropy ΔsolS^0 [2, 12]: 17.30 J mol^−1 K^−1
- Apparent standard Gibbs energy ΔsolG^0 [2, 13]: 2.674 kcal/mol
- Apparent standard entropy ΔsolS^0 [2, 13]: 9.05 J mol^−1 K^−1
- Apparent standard Gibbs energy ΔsolG^0 [2, 14]: 2 kcal/mol
- Apparent standard enthalpy ΔsolH^0 [2, 14]: 2.732 kcal/mol
- Apparent standard entropy ΔsolS^0 [2, 14]: 9.91 J mol^−1 K^−1
- Solvation-driven process (enthalpy–entropy compensation) ([2]; all cosolvent combinations and pure solvents, Thm = 308 K): enthalpy-driven
- Nature of dissolution ([2]; all cosolvent combinations, including neat solvents): endothermic and entropy-driven
- Experimental mole fraction solubility (xe) ([3]; DMSO mass fraction m = 0.0, T = 298.2 K): 2.24 × 10^−7 mole fraction
- Experimental mole fraction solubility (xe) ([3]; DMSO mass fraction m = 0.0, T = 303.2 K): 3.37 × 10^−7 mole fraction
- Experimental mole fraction solubility (xe) ([3]; DMSO mass fraction m = 0.0, T = 308.2 K): 4.85 × 10^−7 mole fraction
- Experimental mole fraction solubility (xe) ([3]; DMSO mass fraction m = 0.0, T = 313.2 K): 6.55 × 10^−7 mole fraction
- Experimental mole fraction solubility (xe) ([3]; DMSO mass fraction m = 0.0, T = 318.2 K): 8.53 × 10^−7 mole fraction
- Experimental mole fraction solubility (xe) ([3]; DMSO mass fraction m = 0.1, T = 298.2 K): 7.46 × 10^−7 mole fraction
- Experimental mole fraction solubility (xe) ([3]; DMSO mass fraction m = 0.1, T = 303.2 K): 1.12 × 10^−6 mole fraction
- Experimental mole fraction solubility (xe) ([3]; DMSO mass fraction m = 0.1, T = 308.2 K): 1.52 × 10^−6 mole fraction
- Experimental mole fraction solubility (xe) ([3]; DMSO mass fraction m = 0.1, T = 313.2 K): 2.01 × 10^−6 mole fraction
- Experimental mole fraction solubility (xe) ([3]; DMSO mass fraction m = 0.1, T = 318.2 K): 2.55 × 10^−6 mole fraction
- Experimental mole fraction solubility (xe) ([3]; DMSO mass fraction m = 0.2, T = 298.2 K): 2.48 × 10^−6 mole fraction
- Experimental mole fraction solubility (xe) ([3]; DMSO mass fraction m = 0.2, T = 303.2 K): 3.48 × 10^−6 mole fraction
- Experimental mole fraction solubility (xe) ([3]; DMSO mass fraction m = 0.2, T = 308.2 K): 4.69 × 10^−6 mole fraction
- Experimental mole fraction solubility (xe) ([3]; DMSO mass fraction m = 0.2, T = 313.2 K): 6.00 × 10^−6 mole fraction
- Experimental mole fraction solubility (xe) ([3]; DMSO mass fraction m = 0.2, T = 318.2 K): 7.57 × 10^−6 mole fraction
- Experimental mole fraction solubility (xe) ([3]; DMSO mass fraction m = 0.3, T = 298.2 K): 8.00 × 10^−6 mole fraction
- Experimental mole fraction solubility (xe) ([3]; DMSO mass fraction m = 0.3, T = 303.2 K): 1.11 × 10^−5 mole fraction
- Experimental mole fraction solubility (xe) ([3]; DMSO mass fraction m = 0.3, T = 308.2 K): 1.46 × 10^−5 mole fraction
- Experimental mole fraction solubility (xe) ([3]; DMSO mass fraction m = 0.3, T = 313.2 K): 1.83 × 10^−5 mole fraction
- Experimental mole fraction solubility (xe) ([3]; DMSO mass fraction m = 0.3, T = 318.2 K): 2.25 × 10^−5 mole fraction
- Experimental mole fraction solubility (xe) ([3]; DMSO mass fraction m = 0.4, T = 298.2 K): 2.66 × 10^−5 mole fraction
- Experimental mole fraction solubility (xe) ([3]; DMSO mass fraction m = 0.4, T = 303.2 K): 3.48 × 10^−5 mole fraction
- Experimental mole fraction solubility (xe) ([3]; DMSO mass fraction m = 0.4, T = 308.2 K): 4.42 × 10^−5 mole fraction
- Experimental mole fraction solubility (xe) ([3]; DMSO mass fraction m = 0.4, T = 313.2 K): 5.49 × 10^−5 mole fraction
- Experimental mole fraction solubility (xe) ([3]; DMSO mass fraction m = 0.4, T = 318.2 K): 6.59 × 10^−5 mole fraction
- Experimental mole fraction solubility (xe) ([3]; DMSO mass fraction m = 0.5, T = 298.2 K): 8.61 × 10^−5 mole fraction
- Experimental mole fraction solubility (xe) ([3]; DMSO mass fraction m = 0.5, T = 303.2 K): 1.12 × 10^−4 mole fraction
- Experimental mole fraction solubility (xe) ([3]; DMSO mass fraction m = 0.5, T = 308.2 K): 1.38 × 10^−4 mole fraction
- Experimental mole fraction solubility (xe) ([3]; DMSO mass fraction m = 0.5, T = 313.2 K): 1.69 × 10^−4 mole fraction
- Experimental mole fraction solubility (xe) ([3]; DMSO mass fraction m = 0.5, T = 318.2 K): 1.98 × 10^−4 mole fraction
- Experimental mole fraction solubility (xe) ([3]; DMSO mass fraction m = 0.6, T = 303.2 K): 3.47 × 10^−4 mole fraction
- Experimental mole fraction solubility (xe) ([3]; DMSO mass fraction m = 0.6, T = 308.2 K): 4.21 × 10^−4 mole fraction
- Experimental mole fraction solubility (xe) ([3]; DMSO mass fraction m = 0.6, T = 313.2 K): 4.95 × 10^−4 mole fraction
- Experimental mole fraction solubility (xe) ([3]; DMSO mass fraction m = 0.6, T = 318.2 K): 5.79 × 10^−4 mole fraction
- Experimental mole fraction solubility (xe) ([3]; DMSO mass fraction m = 0.7, T = 298.2 K): 9.33 × 10^−4 mole fraction
- Experimental mole fraction solubility (xe) ([3]; DMSO mass fraction m = 0.7, T = 303.2 K): 1.12 × 10^−3 mole fraction
- Experimental mole fraction solubility (xe) ([3]; DMSO mass fraction m = 0.7, T = 308.2 K): 1.31 × 10^−3 mole fraction
- Experimental mole fraction solubility (xe) ([3]; DMSO mass fraction m = 0.7, T = 313.2 K): 1.53 × 10^−3 mole fraction
- Experimental mole fraction solubility (xe) ([3]; DMSO mass fraction m = 0.7, T = 318.2 K): 1.72 × 10^−3 mole fraction
- Experimental mole fraction solubility (xe) ([3]; DMSO mass fraction m = 0.8, T = 298.2 K): 3.09 × 10^−3 mole fraction
- Experimental mole fraction solubility (xe) ([3]; DMSO mass fraction m = 0.8, T = 303.2 K): 3.53 × 10^−3 mole fraction
- Experimental mole fraction solubility (xe) ([3]; DMSO mass fraction m = 0.8, T = 308.2 K): 3.99 × 10^−3 mole fraction
- Experimental mole fraction solubility (xe) ([3]; DMSO mass fraction m = 0.8, T = 313.2 K): 4.55 × 10^−3 mole fraction
- Experimental mole fraction solubility (xe) ([3]; DMSO mass fraction m = 0.8, T = 318.2 K): 5.04 × 10^−3 mole fraction
- Experimental mole fraction solubility (xe) ([3]; DMSO mass fraction m = 0.9, T = 298.2 K): 1.07 × 10^−2 mole fraction
- Experimental mole fraction solubility (xe) ([3]; DMSO mass fraction m = 0.9, T = 303.2 K): 1.15 × 10^−2 mole fraction
- Experimental mole fraction solubility (xe) ([3]; DMSO mass fraction m = 0.9, T = 308.2 K): 1.26 × 10^−2 mole fraction
- Experimental mole fraction solubility (xe) ([3]; DMSO mass fraction m = 0.9, T = 313.2 K): 1.38 × 10^−2 mole fraction
- Experimental mole fraction solubility (xe) ([3]; DMSO mass fraction m = 0.9, T = 318.2 K): 1.52 × 10^−2 mole fraction
- Experimental mole fraction solubility (xe) ([3]; DMSO mass fraction m = 1.0, T = 298.2 K): 3.29 × 10^−2 mole fraction
- Experimental mole fraction solubility (xe) ([3]; DMSO mass fraction m = 1.0, T = 303.2 K): 3.50 × 10^−2 mole fraction
- Experimental mole fraction solubility (xe) ([3]; DMSO mass fraction m = 1.0, T = 308.2 K): 3.78 × 10^−2 mole fraction
- Experimental mole fraction solubility (xe) ([3]; DMSO mass fraction m = 1.0, T = 313.2 K): 4.02 × 10^−2 mole fraction
- Experimental mole fraction solubility (xe) ([3]; DMSO mass fraction m = 1.0, T = 318.2 K): 4.38 × 10^−2 mole fraction
- Solubility classification in DMSO ([3]; neat DMSO, 298.2–318.2 K): freely soluble
- Solubility classification in H2O ([3]; neat H2O, 298.2–318.2 K): practically insoluble
